# “Also recorded” adds a separate entry of the source.
# Tests used:
# Jurkat cells = experiment: Anti-Fas induced apoptosis in Jurkat cells, Annexin V; assay type: cell-based, human; details: Anti-Fas, Human Jurkat cell line/Annexin V, 18 hours, n = 4; read-out: IC50, inhibition of apoptosis
# Procedure: Jurkat cells were obtained from LGC Standards (Teddington, UK) and were grown in RPMI 1640, 10% FCS, 2 mM L-glutamine, 100 U/ml penicillin and 0.1 mg/ml streptomycin (all from Sigma Aldrich Ltd., Poole, UK) at 37°C in 5% CO2/95% humidity. Receptor- or stress-mediated apoptosis (2 × 10^5 cells/ml) was induced by addition of either anti-Fas antibody CH-11 (10 ng/ml, Millipore UK Ltd., Watford, UK), TNF-α (20 ng/ml, R&D Systems, Abingdon, UK) with cycloheximide (112 ng/ml, Sigma Aldrich Ltd., Poole, UK) or staurosporine (350 ng/ml, Sigma Aldrich Ltd., Poole, UK). VX-166 was diluted into DMSO (10 mM), further diluted in media and added at a range of concentrations. Cells were then incubated for 18 hours. Apoptotic cells were then labelled with Cy5-conjugated Annexin-V (BD Biosciences, Oxford, UK) and detected using a FMAT™ 8100 Fluorimetric Microassay Technology Reader (Applied Biosystems, Warrington, UK). For the experiments using anti-Fas antibody, apoptosis was additionally measured using a Cell Death Detection ELISA kit (Roche Diagnostics Ltd., Lewes, UK) following the manufacturer's instructions.
# CD-1 mice = experiment: Endotoxic shock in the mouse (LPS 20 mg/kg iv), survival; assay type: in vivo
# Procedure: Endotoxic shock studies were approved by the Vertex Pharmaceuticals Institutional Animal Care and Use Committee. Adult male CD-1 mice (weighing 30 to 32 g; Charles River Laboratories, Wilmington, MA, USA) were administered LPS (from E. coli serotype 0111:B4, Sigma-Aldrich, St. Louis, MO, USA) at 20 mg/kg iv and survival was monitored for 96 hours (n = 28 per group). VX-166 or vehicle (10% propylene glycol: 90% sodium phosphate buffer pH 8) were administered by repeat iv bolus at 0 hours (co-injection with LPS), 4, 8 and 12 hours post-LPS. VX-166 was administered at 1, 3, 10 or 30 mg/kg.
# thymocytes = experiment: CLP rat, thymocyte apoptosis by flow cytometry; assay type: in vivo; details: 20 hours, 25 mg/ml pump, n = 10
# Procedure: CLP studies were performed in accordance with the National Institutes of Health guidelines for the use of experimental animals and were approved by the Institutional Animal Care and Use Committee of the Feinstein Institute for Medical Research. Adult male Sprague-Dawley rats (weighing 275 to 325 g, Charles River Laboratories, Wilmington, MA, USA) were fasted overnight then anaesthetised with isoflurane. The caecum was exposed via a 2 cm midline incision. It was ligated just distal to the ileocaecal valve, then punctured twice with an 18-gauge needle and gently squeezed to release a small amount of faecal material to ensure patency of the perforation sites before the abdominal incision was closed. Sham-operated rats underwent the same procedure with the exception that the caecum was neither ligated nor punctured. Animals received subcutaneous fluids (30 ml/kg saline) immediately after the procedure. No antibiotics were administered. In the 7 and 10 day survival studies animals were re-anaesthetised 20 hours after CLP, the perforated caecum was removed and the abdominal cavity washed twice with 40 ml of warm, sterilised saline. The abdominal cavity was closed, anaesthetics withdrawn and rats returned to their cages where they were allowed free access to food and water. In the 20 hour endpoint study the caecum was not removed. […]
# Rat PBMC were isolated from heparinised blood by Ficoll Paque (GE Healthcare Bio-Sciences Corp., Piscataway, NJ, USA) density gradient centrifugation and washed three times with PBS (Invitrogen, Carlsbad, CA, USA). […] Cells were then washed twice in PBS, counted and reconstituted in Ca^2+-rich Annexin-V binding buffer (BD Biosciences, San Jose, CA, USA) at a concentration of 1 × 10^7 cells/ml. […] Cells were then analysed by flow cytometry with the FACS-Calibur (BD Biosciences, San Jose, CA, USA) and percentages of viable (Annexin-V^-/PI^-), early apoptotic (Annexin-V^+/PI^-), late apoptotic (Annexin-V^+/PI^+) and necrotic (Annexin-V^-/PI^+) cells were determined.
compound,measurement,setting,value
CCC(C(=O)NC(CC(=O)O)C(=O)COc1c(F)c(F)cc(F)c1F)n1cccc(NC(=O)OC)c1=O (stereo not shown) [VX-166],IC50,Jurkat cells,0.027 ± 0.009 µM
same,survival rate at 96 hours compared with vehicle control,"CD-1 mice; LPS 20 mg/kg iv, 30 mg/kg iv at 0, 4, 8, 12 hours",more than doubled
same,survival over 96 hours,"CD-1 mice; LPS 20 mg/kg iv, 1, 3, 10 or 30 mg/kg repeat iv bolus at 0, 4, 8 and 12 hours post-LPS, vs vehicle",significantly improved survival in a dose-dependent fashion
same,"survival compared with vehicle control, second study","CD-1 mice; different batch of LPS, 30 mg/kg iv at 0, 4, 8, 12 hours, P < 0.0001",substantially improved survival
same,level of necrotic thymocytes between groups,thymocytes,remained unchanged
same,percentage of early apoptotic thymocytes vs vehicle CLP group,thymocytes,significantly inhibited thymic atrophy and lymphocyte apoptosis; also recorded: reduced the percentage of early apoptotic thymocytes
same,percentage of viable thymocytes vs vehicle CLP group,thymocytes,significantly increased the percentage of viable cells

# Reference: PMC2784364, “VX-166: a novel potent small molecule caspase inhibitor as a potential therapy for sepsis” (Critical Care, 2009)
